Results on one compound are retold here after ChEMBL document CHEMBL5380831, “Azolylpyrimidinediols as Novel Structural Scaffolds of DNA-Groove Binders against Intractable Acinetobacter baumannii” (J Med Chem, 2023).

Values after ≈ are worked out from the molar mass of the structure shown. Active and inactive are the calls of the source. The rule behind the calls is not given here.

In data set [1] the test system is Staphylococcus aureus. Description: Antibacterial activity against Staphylococcus aureus assessed as bacterial growth inhibition incubated for 24 hrs by broth microdilution method. It counts as functional.
Data set [2] is described as follows: Half life in Kunming mouse at 10 mg/kg, iv measured upto 24 hrs by LC-MS analysis. It counts as ADME, organism-based. The following applies: in vivo.
Data set [3] concerns Cell membrane. Kind of data set: Induction of inner membrane damage in Acinetobacter baumannii at 1 to 8 times MIC incubated for 30 mins by fluorescence based assay.
Data set [4] in a line: C0 in Kunming mouse at 10 mg/kg, iv measured upto 24 hrs by LC-MS analysis. It counts as ADME, organism-based. The following applies: in vivo.
In data set [5] the test system is Cell membrane. Description: Induction of outer membrane damage in Acinetobacter baumannii at 1 to 8 times MIC incubated for 30 mins by fluorescence based assay.
In the next data set the test system is Erythrocyte. Kind of data set: Hemolytic activity in human RBC at greater than MIC measured for 2 to 4 hrs by absorbance based assay. It counts as toxicity, cell-based. The following applies: time 2-4 hrs.
Data set [6] has as its system Staphylococcus aureus. Kind of data set: Antibacterial activity against Staphylococcus aureus ATCC 29213 assessed as bacterial growth inhibition incubated for 24 hrs by broth microdilution method. In kind it is functional.
Data set [7] has as its system Calf thymus DNA. Kind of data set: Binding affinity to calf thymus DNA assessed as compound-DNA complex formation by absorbance based assay. In kind it is nucleic-acid assay. To be noted: Bos taurus.
Data set [8] can be described thus: Clearance in Kunming mouse at 10 mg/kg, po measured upto 24 hrs by LC-MS analysis. In kind it is ADME, organism-based. To be noted: in vivo.
Data set [9] can be described thus: Cytotoxicity against human L02 cells assessed as cell viability at effective concentration measured after 24 hrs by MTT assay relative to control. It counts as toxicity, cell-based. To be noted: read-out: Activity.
A short description of data set [10]: MRT (0 to t) in Kunming mouse at 10 mg/kg, po measured upto 24 hrs by LC-MS analysis. It counts as ADME, organism-based. The following applies: in vivo.
Data set [11] deals with Calf thymus DNA. Kind of data set: Induction of calf thymus DNA cleavage at 0.05 mmol/L incubated for 6 hrs in presence of Zn(NO3)2 by agarose gel electrophoresis method. The following applies: Bos taurus. In kind it is nucleic-acid assay.
The subject of another data set is Escherichia coli. Description: Antibacterial activity against Escherichia coli assessed as bacterial growth inhibition incubated for 24 hrs by broth microdilution method. It counts as functional.
The nature of data set [12]: AUMC (0 to infinity) in Kunming mouse at 10 mg/kg, iv measured upto 24 hrs by LC-MS analysis. In kind it is ADME, organism-based. To be noted: in vivo.

For `OCCN(CCO)c1nccc(-n2cncn2)n1`, the results for the MIC in the data set with Staphylococcus aureus [1], in the data set on Staphylococcus aureus [6] and in the data set on Escherichia coli were 512 µM (≈ 128 µg/mL), 1020 µM (≈ 256 µg/mL) and 1020 µM (≈ 256 µg/mL), respectively. Further, in data set [2], the half-life is 2.79 h. Also, the result in the data set on Cell membrane [3], in the data set on Cell membrane [5] and with Calf thymus DNA [11] was inactive. The C0 at 24 h in data set [4] was found to be 2590 ng/mL. In addition, the Activity entry in the data set with Erythrocyte is reported as “Non-Toxic”. In the data set on Calf thymus DNA [7], the outcome was Active. Moreover, the apparent clearance (CL/F) in data set [8] is 20.7 mL/min/kg. The viability at 24 h in [9] was over 75%. The compound also yielded an MRT last at 24 h in data set [10] of 3.97 h. The same compound yielded an AUMC in [12] of 8598 hr.hr.ng/ml.
